Data reported in paper PMC11507521, “Pyrimidine Derivatives as Selective COX-2 Inhibitors with Anti-Inflammatory and Antioxidant Properties” (International Journal of Molecular Sciences, 2024).

Target: T1, human serum albumin (HSA) (Homo sapiens, UniProt P02768)
T1 construct: gene ALB; serum albumin in HEPES pH 7.4
Experiment: UV-Vis titration, Benesi-Hildebrand
Format: binding
Settings: HEPES pH 7.4, 25 °C, DMSO < 1%
Source text: UV-Vis titration, Benesi-Hildebrand on human serum albumin (HSA)

T1 sequence (P02768 25-609): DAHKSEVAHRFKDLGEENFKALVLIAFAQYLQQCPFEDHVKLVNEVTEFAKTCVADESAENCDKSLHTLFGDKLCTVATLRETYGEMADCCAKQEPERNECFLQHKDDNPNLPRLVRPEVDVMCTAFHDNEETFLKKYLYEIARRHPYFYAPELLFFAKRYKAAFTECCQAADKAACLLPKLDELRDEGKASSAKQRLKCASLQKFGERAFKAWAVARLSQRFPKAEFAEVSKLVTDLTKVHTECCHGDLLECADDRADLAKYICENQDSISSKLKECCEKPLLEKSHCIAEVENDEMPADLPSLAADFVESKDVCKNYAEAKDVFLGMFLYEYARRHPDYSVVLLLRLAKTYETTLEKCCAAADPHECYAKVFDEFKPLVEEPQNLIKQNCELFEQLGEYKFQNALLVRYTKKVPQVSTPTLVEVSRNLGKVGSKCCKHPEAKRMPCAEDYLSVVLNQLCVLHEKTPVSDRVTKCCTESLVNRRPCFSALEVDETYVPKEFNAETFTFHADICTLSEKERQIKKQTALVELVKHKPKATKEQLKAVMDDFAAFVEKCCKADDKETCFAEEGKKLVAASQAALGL

binding constant (Kb) to HSA | binding constant (Kb) | SMILES
9.92 × 10^4 dm^3/mol |  | CCN(CC)CCNc1cc(NN=C2CCCc3cc(OC)ccc32)ncn1 [L1]
4.54 × 10^5 dm^3/mol |  | COc1ccc2c(c1)CCCC2=NNc1cc(NCCN(C)C)ncn1 [L2]
 | 6.82 × 10^4 dm^3/mol | COc1ccc2c(c1)CCCC2=NNc1cc(NCCCN(C)C)ncn1 [L4]
